Data as given in patent US20200400650A1, “METHODS FOR DECONTAMINATING CIRCUITS FOR PRODUCING GLUCOSE POLYMERS AND HYDROLYSATES OF GLUCOSE POLYMERS” (Roquette Freres, priority 2012, published 2020).
“Also recorded” adds a separate entry of the source. Blank lines part the entries; values can stand above or below the compound they belong to.

Assays:
[1] = system: Raw-Blue™ line; test: Raw-Blue cell inflammatory response test (SEAP reporter activity); type: cell-based, mouse
Excerpt: The Raw-Blue™ line is a line of mouse macrophages transfected with a reporter gene producing a secreted form of alkaline phosphatase (SEAP: secreted embryonic alkaline phosphatase), the transcription of which is under the direct control of the inflammatory signaling pathways. The advantage of this line is that it naturally expresses virtually all the innate immunity receptors, including the TLR2, TLR4 and NOD2 receptors. Thus, these cells will respond to the majority of inflammatory contaminants, and the response will be monitored by measuring the enzymatic activity of the SEAP produced. Preferably, this line is used in the test at a cell density of approximately 0.5×10^6 cells/well. The bringing of the preparation of glucose polymers or of hydrolysates thereof into contact with the cells lasts approximately 16 to 24 h.
(§1) The dose-response curves are produced with standard agonist molecules: LPS, PGN, LTA, zymosan and MDP. The Raw-Blue™ and HEK-Blue™ TLR2, TLR4, NOD2 and Null lines are incubated with increasing concentrations of agonists, and the cell response is measured by quantifying the SEAP activity (FIGS. 1-5).
For the cell tests, the samples are diluted to 1/10 in the cell culture medium (final concentration: 3.2% (w/v)). […]

[2] = target: T1, hTLR2 receptor (Homo sapiens, UniProt O60603); test: HEK-Blue hTLR2 cell response test (SEAP reporter activity); type: cell-based
T1 construct: host or cells: HEK-Blue hTLR2 (HEK293-derived, SEAP reporter)
Excerpt: (§2) The cell lines, in particular HEK-Blue™ (InvivoGen), are lines modified by stable transfection with a vector encoding an innate immunity receptor, in particular human (h) receptors. They are also cotransfected with the reporter gene, in particular a reporter gene producing SEAP, the synthesis of which is under the direct control of the signaling pathway associated with the receptor overexpressed. Preferably, this reporter gene encodes a colored or fluorescent protein or a protein of which the activity can be measured with or without substrate. […] The use of these lines makes it possible to target certain families of molecules of microbial origin according to the receptor expressed. Preferably, cell lines expressing either hTLR2 or hTLR4 or hNOD2 are used. In addition, a control line which expresses no innate immunity receptor is also used.
(§3) For the tests according to the present invention, four lines are preferably used: • HEK-Blue™ hTLR2 line: this line expressing the hTLR2 receptor responds specifically to TLR2 agonists (PGNs and lipopeptides especially). […]
as §1, with “1-5). […]” for “1-5).”

[3] = target: T2, hTLR4 receptor (Homo sapiens, UniProt O00206+Q9Y6Y9); test: HEK-Blue hTLR4 cell response test (SEAP reporter activity); type: cell-based
T2 construct: host or cells: HEK-Blue hTLR4 (HEK293-derived, SEAP reporter)
Excerpt: as §2, §3
as §1, with “1-5). […]” for “1-5).”

[4] = system: Raw-Blue™ and HEK-Blue™ lines; test: Assessment by sample of the inflammatory activities from the combined cell tests; type: cell-based; conditions: overall assessment, FIG. 11
Procedure: The objective of these tests is to determine the pro-inflammatory reactivity and the nature of the contaminants present in the glucose polymer matrices and the batch of glucose polymer hydrolysate.
The analyses are carried out on: • Raw-Blue™ line: any contaminants with high reactivity for PGNs, • HEK-Blue™ hTLR2 line: high reactivity for PGNs, • HEK-Blue™ hTLR4 line: high reactivity for LPSs, • HEK-Blue™ hNOD2 line: MDP and PGN depolymerization products, • HEK-Blue™ Null2 line: control for absence of cell toxicity.

[5] = target: T3, hNOD2 receptor (Homo sapiens, UniProt Q9HC29); test: HEK-Blue hNOD2 cell response test (SEAP reporter activity); type: cell-based; conditions: increasing concentrations of agonist
T3 construct: host or cells: HEK-Blue hNOD2 (HEK293-derived, SEAP reporter)
Excerpt: as §2, §3
as §1, with “1-5). […]” for “1-5).”

[6] = background statement; cited from earlier work
[7] = increasing concentrations of agonist, SEAP activity

T1 sequence (O60603 19-784 limits assumed): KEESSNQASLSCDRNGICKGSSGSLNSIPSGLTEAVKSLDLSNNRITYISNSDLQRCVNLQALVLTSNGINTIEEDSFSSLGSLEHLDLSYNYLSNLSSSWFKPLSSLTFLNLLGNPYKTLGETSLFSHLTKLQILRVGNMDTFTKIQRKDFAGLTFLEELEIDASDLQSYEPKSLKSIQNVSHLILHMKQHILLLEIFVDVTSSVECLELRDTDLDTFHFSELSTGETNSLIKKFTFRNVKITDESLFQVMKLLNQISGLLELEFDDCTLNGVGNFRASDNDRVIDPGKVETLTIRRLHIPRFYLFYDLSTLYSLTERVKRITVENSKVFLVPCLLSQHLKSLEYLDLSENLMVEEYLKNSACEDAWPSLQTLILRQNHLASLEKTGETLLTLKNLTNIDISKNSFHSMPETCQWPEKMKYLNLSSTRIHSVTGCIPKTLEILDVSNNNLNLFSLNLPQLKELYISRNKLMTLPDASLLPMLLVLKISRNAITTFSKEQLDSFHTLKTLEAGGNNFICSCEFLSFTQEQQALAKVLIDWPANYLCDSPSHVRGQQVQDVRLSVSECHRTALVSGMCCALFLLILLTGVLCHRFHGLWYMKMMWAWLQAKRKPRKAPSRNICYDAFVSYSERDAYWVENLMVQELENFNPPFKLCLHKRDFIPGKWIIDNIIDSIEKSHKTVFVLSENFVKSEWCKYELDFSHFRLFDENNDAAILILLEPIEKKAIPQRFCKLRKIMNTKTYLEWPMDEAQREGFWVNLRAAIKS
T2 sequence (O00206 24-839): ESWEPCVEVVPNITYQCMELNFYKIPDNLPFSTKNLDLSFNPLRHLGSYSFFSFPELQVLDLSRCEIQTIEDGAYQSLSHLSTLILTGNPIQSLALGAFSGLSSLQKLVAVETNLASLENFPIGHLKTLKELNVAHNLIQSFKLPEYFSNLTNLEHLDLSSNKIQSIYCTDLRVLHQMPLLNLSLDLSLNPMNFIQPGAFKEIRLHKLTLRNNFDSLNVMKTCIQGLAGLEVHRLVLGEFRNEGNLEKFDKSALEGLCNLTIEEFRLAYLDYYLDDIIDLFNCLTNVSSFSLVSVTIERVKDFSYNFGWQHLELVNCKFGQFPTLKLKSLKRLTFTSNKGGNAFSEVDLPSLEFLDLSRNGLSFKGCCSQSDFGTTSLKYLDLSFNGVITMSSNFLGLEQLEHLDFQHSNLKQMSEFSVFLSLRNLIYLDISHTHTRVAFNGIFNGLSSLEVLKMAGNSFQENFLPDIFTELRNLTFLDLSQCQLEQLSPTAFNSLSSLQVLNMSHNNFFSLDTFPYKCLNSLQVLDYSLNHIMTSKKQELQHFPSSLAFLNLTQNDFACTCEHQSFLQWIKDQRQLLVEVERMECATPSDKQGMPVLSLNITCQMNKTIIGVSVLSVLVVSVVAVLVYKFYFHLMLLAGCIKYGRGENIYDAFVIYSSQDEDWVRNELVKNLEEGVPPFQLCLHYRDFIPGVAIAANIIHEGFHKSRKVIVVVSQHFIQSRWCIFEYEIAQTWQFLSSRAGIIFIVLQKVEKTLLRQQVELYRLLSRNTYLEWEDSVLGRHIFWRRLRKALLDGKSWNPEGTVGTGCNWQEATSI
T2 sequence (Q9Y6Y9 17-160 limits assumed): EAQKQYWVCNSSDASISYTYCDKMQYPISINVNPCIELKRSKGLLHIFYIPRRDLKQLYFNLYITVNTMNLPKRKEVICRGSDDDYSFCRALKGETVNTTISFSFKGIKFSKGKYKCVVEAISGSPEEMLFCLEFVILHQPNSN
T3 sequence (Q9HC29 whole entry): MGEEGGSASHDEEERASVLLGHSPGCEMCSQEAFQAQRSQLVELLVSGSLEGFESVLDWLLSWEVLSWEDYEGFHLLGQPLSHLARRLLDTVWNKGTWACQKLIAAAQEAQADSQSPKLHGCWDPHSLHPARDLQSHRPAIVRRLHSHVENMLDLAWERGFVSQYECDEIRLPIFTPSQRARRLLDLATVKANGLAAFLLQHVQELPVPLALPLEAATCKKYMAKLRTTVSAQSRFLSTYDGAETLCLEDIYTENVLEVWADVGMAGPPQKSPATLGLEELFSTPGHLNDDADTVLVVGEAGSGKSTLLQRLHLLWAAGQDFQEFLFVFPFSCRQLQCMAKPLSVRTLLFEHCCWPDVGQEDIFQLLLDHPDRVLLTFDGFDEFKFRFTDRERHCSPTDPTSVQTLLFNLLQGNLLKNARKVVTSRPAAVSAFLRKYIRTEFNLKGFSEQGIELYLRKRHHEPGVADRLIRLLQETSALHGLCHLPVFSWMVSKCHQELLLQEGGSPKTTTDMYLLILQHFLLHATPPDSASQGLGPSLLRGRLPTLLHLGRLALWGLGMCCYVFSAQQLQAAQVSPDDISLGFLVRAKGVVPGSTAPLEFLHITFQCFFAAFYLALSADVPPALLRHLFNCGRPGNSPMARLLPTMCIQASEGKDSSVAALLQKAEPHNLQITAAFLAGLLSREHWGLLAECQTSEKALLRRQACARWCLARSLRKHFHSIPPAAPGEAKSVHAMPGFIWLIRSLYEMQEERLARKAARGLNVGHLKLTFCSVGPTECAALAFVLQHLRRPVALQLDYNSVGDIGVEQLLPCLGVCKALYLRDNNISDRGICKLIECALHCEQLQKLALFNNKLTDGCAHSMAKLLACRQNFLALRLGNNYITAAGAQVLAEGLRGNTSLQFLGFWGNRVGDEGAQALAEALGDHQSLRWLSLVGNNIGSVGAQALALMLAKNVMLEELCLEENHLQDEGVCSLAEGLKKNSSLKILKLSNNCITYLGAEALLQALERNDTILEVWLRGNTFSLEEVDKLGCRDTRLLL

Compound: O.O=C[C@H](O)[C@@H](O)[C@H](O)[C@H](O)CO [LYCADEX®, dextrose monohydrate]
- Raw cell response induced by matrix ([1]; nonfiltered sample, 3.2% (w/v)): trigger an inflammatory response
- HEK-TLR2 cell response induced by matrix ([2]; nonfiltered sample, 3.2% (w/v), monohydrate): do not trigger responses; also recorded: only barely or not at all active
- HEK-TLR4 cell response induced by matrix ([3]; nonfiltered sample, 3.2% (w/v)): do not trigger a significant response
- Assessment of inflammatory activity by sample [4]: low-strength inflammatory activity

- HEK-Blue hTLR2 cell response to standard agonists [2, 7]: no reactivity
- HEK-Blue hTLR4 cell response to standard agonists [3, 7]: no reactivity
- HEK-Blue hNOD2 cell response to standard agonists [5]: strong reactivity
Compound: CC(=O)N[C@H]1C(O)O[C@H](CO)[C@@H](O)[C@@H]1O[C@H](C)C(=O)N[C@@H](C)C(=O)N[C@H](CCC(=O)O)C(N)=O (mixture of isomers) [MDP, muramyl dipeptide]
- Raw-Blue cell response to standard agonists [1, 7]: do not respond

Compound: formyl-Met-Leu-Phe tripeptide [f-MLP]
- Induction of a cytokine response per se [6]: incapable of inducing a cytokine response per se
